Converted amounts (≈) assume the structure as drawn. Where a SMILES comes first, the peptide text is derived from it. Where no end group is shown, it is not given here. [ ]: non-standard residue; d: D form.
Legend:
C. glabrata (ATCC 2001) = experiment: MFC, plating after MIC incubation; type: cell-based; conditions: 50 µl aliquots from MIC wells onto agar plates, overnight 35 °C, lowest concentration reducing CFUs at least 99.9%
Protocol: (§1) The minimal inhibitory concentration (MIC) of the peptides was measured in triplicate by the standard broth microdilution method (Peterson et al. [1980]; Wang et al. [2012]). In brief, bacteria/fungi were cultured overnight to mid-logarithmic-phase in Mueller–Hinton broth (MHB)/Sabouraud dextrose broth. The cultures were diluted to a final concentration of 2 × 10^4 cfu/ml in fresh Mueller–Hinton broth (MHB)/Sabouraud dextrose broth. Each well of 96-well propylene microtitre plates was filled with 100 µl cell suspension and 100 μl peptide solution of twofold diluted serially. And the final concentrations of peptide mixtures ranged from 1 to 256 µM. Controls were done without peptides. After 18 h of incubation at 37 °C (bacteria)/35 °C (fungi), the minimal inhibitory concentration (MIC) of the peptides was evaluated by visible turbidity in each well.
(§2) The minimal bactericidal concentrations (MBCs) and minimum fungicidal concentration (MFCs) of the peptides was determined at the end of the incubation period by transferring 50 µl aliquots onto agar plates and incubated overnight at 37 °C/35 °C. The MBC/MFC was set as the lowest concentration of the number of CFUs that reduced at least 99.9%.

C. krusei (ATCC 6258) = experiment: MFC, plating after MIC incubation; type: cell-based; conditions: 50 µl aliquots from MIC wells onto agar plates, overnight 35 °C, lowest concentration reducing CFUs at least 99.9%
Protocol: as §1, §2

C. albicans (ATCC 14053) = experiment: MFC, plating after MIC incubation; type: cell-based; conditions: 50 µl aliquots from MIC wells onto agar plates, overnight 35 °C, lowest concentration reducing CFUs at least 99.9%
Protocol: as §1, §2

[1] = tested on: C. parapsilosis (ATCC 22019); experiment: MFC, plating after MIC incubation; type: cell-based; conditions: 50 µl aliquots from MIC wells onto agar plates, overnight 35 °C, lowest concentration reducing CFUs at least 99.9%
Protocol: as §1, §2

C.tropicalis (ATCC 750) = experiment: MFC, plating after MIC incubation; type: cell-based; conditions: 50 µl aliquots from MIC wells onto agar plates, overnight 35 °C, lowest concentration reducing CFUs at least 99.9%
Protocol: as §1, §2

(ATCC 700603) = conditions: ATCC 700603, 18 h
[2] = tested on: Staphylococcus epidermidis (ATCC 12228); experiment: MIC, broth microdilution; type: cell-based; conditions: Mueller–Hinton broth, 2 × 10^4 cfu/ml, peptide 1 to 256 µM, 18 h, 37 °C, visible turbidity, triplicate
Protocol: as §1

sakazakii (ATCC 29544) [3] = experiment: MIC, broth microdilution; type: cell-based; conditions: Mueller–Hinton broth, 2 × 10^4 cfu/ml, peptide 1 to 256 µM, 18 h, 37 °C, visible turbidity, triplicate
Protocol: as §1

[4] = tested on: Candida tropicalis (ATCC 750); experiment: MIC, broth microdilution; type: cell-based; conditions: Sabouraud dextrose broth, 2 × 10^4 cfu/ml, peptide 1 to 256 µM, 18 h, 35 °C, visible turbidity, triplicate
Protocol: as §1

[5] = tested on: Pseudomonas aeruginosa (ATCC 27853); experiment: MIC, broth microdilution; type: cell-based; conditions: Mueller–Hinton broth, 2 × 10^4 cfu/ml, peptide 1 to 256 µM, 18 h, 37 °C, visible turbidity, triplicate
Protocol: as §1

[6] = tested on: Candida krusei (ATCC 6258); experiment: MIC, broth microdilution; type: cell-based; conditions: Sabouraud dextrose broth, 2 × 10^4 cfu/ml, peptide 1 to 256 µM, 18 h, 35 °C, visible turbidity, triplicate
Protocol: as §1

[7] = tested on: Candida albicans ATCC (ATCC 14053); experiment: MIC, broth microdilution; type: cell-based; conditions: Candida albicans (ATCC 14053), Sabouraud dextrose broth, 2 × 10^4 cfu/ml, peptide 1 to 256 µM, 18 h, 35 °C, visible turbidity, triplicate
Protocol: as §1

[8] = tested on: E. coli (ML-35) (ATCC 43827); experiment: MIC, broth microdilution; type: cell-based; conditions: Mueller–Hinton broth, 2 × 10^4 cfu/ml, peptide 1 to 256 µM, 18 h, 37 °C, visible turbidity, triplicate
Protocol: as §1

[9] = tested on: Candida glabrata ATCC (ATCC 2001); experiment: MIC, broth microdilution; type: cell-based; conditions: Candida glabrata (ATCC 2001), Sabouraud dextrose broth, 2 × 10^4 cfu/ml, peptide 1 to 256 µM, 18 h, 35 °C, visible turbidity, triplicate
Protocol: as §1

[10] = tested on: Bacillus subtilis (ATCC 23857); experiment: MIC, broth microdilution; type: cell-based; conditions: Mueller–Hinton broth, 2 × 10^4 cfu/ml, peptide 1 to 256 µM, 18 h, 37 °C, visible turbidity, triplicate
Protocol: as §1

[11] = tested on: Candida parapsilosis (ATCC 22019); experiment: MIC, broth microdilution; type: cell-based; conditions: Sabouraud dextrose broth, 2 × 10^4 cfu/ml, peptide 1 to 256 µM, 18 h, 35 °C, visible turbidity, triplicate
Protocol: as §1

E. coli (ATCC 2592) = experiment: MIC, broth microdilution; type: cell-based; conditions: Mueller–Hinton broth, 2 × 10^4 cfu/ml, peptide 1 to 256 µM, 18 h, 37 °C, visible turbidity, triplicate
Protocol: as §1

[12] = tested on: Staphylococcus aureus (ATCC 29213); experiment: MIC, broth microdilution; type: cell-based; conditions: Mueller–Hinton broth, 2 × 10^4 cfu/ml, peptide 1 to 256 µM, 18 h, 37 °C, visible turbidity, triplicate
Protocol: as §1

trypsin = experiment: RP-HPLC analysis of stability to trypsin; type: in vitro ADME; conditions: peptide 10 mM, trypsin 0.2 mg/ml, 37 °C, 0 and 360 min, TFA/acetonitrile precipitation, Fig. 7
Protocol: The stability of polybia-MPI and its analogues was assayed with trypsin or chymotrypsin in a volume ratio of 1:15 (peptide:trypsin) (Choi et al. [2013]; Hamamoto et al. [2002]; Molhoek et al. [2011]). Peptides at the concentration of 10 mM were incubated with trypsin or chymotrypsin (0.2 mg/ml) at 37 °C. 40 µl samples of the incubations were taken for the time of 0 and 360 min, respectively. Then, the samples were mixed with 80 µl of 15% trifluoroacetic acid (TFA) and 80 µl acetonitrile which incubated at 4 °C for at least 15 min to precipitate proteins. The supernatant was collected of each sample after centrifugation at 13,000 rpm for 10 min and were detected with reverse phase high performance liquid chromatography (RP-HPLC) analysis.
Fig. 7 HPLC analysis of the susceptibility of polybia-MPI, D-MPI and D-lys-MPI to trypsin and chymotrypsin. Peptides at the concentration of 10 mM were incubated with trypsin or chymotrypsin at 37 °C. At the determined time interval, samples were taken and mixed with trifluoroacetic acid (TFA) and acetonitrile to precipitate proteins, respectively. Then the samples were detected with reverse phase high performance liquid chromatography (RP-HPLC) analysis

[13] = tested on: Pseudomonas aeruginosa (ATCC27853); experiment: MBC, plating after MIC incubation; type: cell-based; conditions: 50 µl aliquots from MIC wells onto agar plates, overnight 37 °C, lowest concentration reducing CFUs at least 99.9%
Protocol: as §1, §2

[14] = tested on: Staphylococcus epidermidis (ATCC 12228); experiment: MBC, plating after MIC incubation; type: cell-based; conditions: 50 µl aliquots from MIC wells onto agar plates, overnight 37 °C, lowest concentration reducing CFUs at least 99.9%
Protocol: as §1, §2

sakazakii (ATCC 29544) [15] = experiment: MBC, plating after MIC incubation; type: cell-based; conditions: 50 µl aliquots from MIC wells onto agar plates, overnight 37 °C, lowest concentration reducing CFUs at least 99.9%
Protocol: as §1, §2

[16] = tested on: Bacillus subtilis (ATCC23857); experiment: MBC, plating after MIC incubation; type: cell-based; conditions: 50 µl aliquots from MIC wells onto agar plates, overnight 37 °C, lowest concentration reducing CFUs at least 99.9%
Protocol: as §1, §2

[17] = tested on: Staphylococcus aureus (ATCC29213); experiment: MBC, plating after MIC incubation; type: cell-based; conditions: 50 µl aliquots from MIC wells onto agar plates, overnight 37 °C, lowest concentration reducing CFUs at least 99.9%
Protocol: as §1, §2

E. coli (ATCC2592) = experiment: MBC, plating after MIC incubation; type: cell-based; conditions: 50 µl aliquots from MIC wells onto agar plates, overnight 37 °C, lowest concentration reducing CFUs at least 99.9%
Protocol: as §1, §2

[18] = tested on: E. coli (ML-35) (ATCC43827); experiment: MBC, plating after MIC incubation; type: cell-based; conditions: 50 µl aliquots from MIC wells onto agar plates, overnight 37 °C, lowest concentration reducing CFUs at least 99.9%
Protocol: as §1, §2

Compound	MBC/MFC (C. glabrata (ATCC 2001)) [µM]	MBC/MFC (C. krusei (ATCC 6258)) [µM]	MBC/MFC (C. albicans (ATCC 14053)) [µM]	MBC/MFC [1] [µM]	MBC/MFC (C.tropicalis (ATCC 750)) [µM]	MIC ((ATCC 700603)) [µM]	MIC [2] [µM]	MIC (sakazakii (ATCC 29544) [3]) [µM]	MIC [4] [µM]	MIC [5] [µM]	MIC [6] [µM]	MIC [7] [µM]	MIC [8] [µM]	MIC [9] [µM]	MIC [10] [µM]	MIC [11] [µM]	MIC (E. coli (ATCC 2592)) [µM]	MIC [12] [µM]	susceptibility to trypsin by HPLC profile (trypsin)	MBC/MFC [13] [µM]	further results
CC[C@@H](C)[C@@H](N)C(=O)N[C@H](CC(=O)O)C(=O)N[C@H](Cc1c[nH]c2ccccc12)C(=O)N[C@H](CCCCN)C(=O)N[C@H](CCCCN)C(=O)N[C@H](CC(C)C)C(=O)N[C@H](CC(C)C)C(=O)N[C@H](CC(=O)O)C(=O)N[C@H](C)C(=O)N[C@H](C)C(=O)N[C@H](CCCCN)C(=O)N[C@H](CCC(N)=O)C(=O)N[C@@H](C(=O)N[C@H](CC(C)C)C(N)=O)[C@H](C)CC [D-MPI] (H-[dI][dD][dW][dK][dK][dL][dL][dD][dA][dA][dK][dQ][dI][dL]-NH2)	32 (≈ 52.9 µg/mL)	8 (≈ 13.2 µg/mL)	16 (≈ 26.5 µg/mL)	32 (≈ 52.9 µg/mL)	16 (≈ 26.5 µg/mL)	64 (≈ 106 µg/mL)	16 (≈ 26.5 µg/mL)	32 (≈ 52.9 µg/mL)	16 (≈ 26.5 µg/mL)	64 (≈ 106 µg/mL)	8 (≈ 13.2 µg/mL)	16 (≈ 26.5 µg/mL)	32 (≈ 52.9 µg/mL)	16 (≈ 26.5 µg/mL)	8 (≈ 13.2 µg/mL)	32 (≈ 52.9 µg/mL)	16 (≈ 26.5 µg/mL)	16 (≈ 26.5 µg/mL)	not or only partly degraded	128 (≈ 212 µg/mL)	MBC/MFC [14]: 128 µM (≈ 212 µg/mL); MBC/MFC (sakazakii (ATCC 29544) [15]): 64 µM (≈ 106 µg/mL); MBC/MFC [16]: 8 µM (≈ 13.2 µg/mL); MBC/MFC [17]: 64 µM (≈ 106 µg/mL); MBC/MFC (E. coli (ATCC2592)): 16 µM (≈ 26.5 µg/mL); MBC/MFC [18]: 64 µM (≈ 106 µg/mL)
IDWKKLLDAAKQIL-NH2 [Polybia-MPI]	32	16	16	128	32	64	32	64	8	128	8	16	32	8	8	64	32	32	susceptible	>256	MBC/MFC [14]: 32 µM; MBC/MFC (sakazakii (ATCC 29544) [15]): 64 µM; MBC/MFC [16]: 8 µM; MBC/MFC [17]: 128 µM; MBC/MFC (E. coli (ATCC2592)): 32 µM; MBC/MFC [18]: 256 µM
CC[C@H](C)[C@H](N)C(=O)N[C@@H](CC(=O)O)C(=O)N[C@@H](Cc1c[nH]c2ccccc12)C(=O)N[C@H](CCCCN)C(=O)N[C@H](CCCCN)C(=O)N[C@@H](CC(C)C)C(=O)N[C@@H](CC(C)C)C(=O)N[C@@H](CC(=O)O)C(=O)N[C@@H](C)C(=O)N[C@@H](C)C(=O)N[C@H](CCCCN)C(=O)N[C@@H](CCC(N)=O)C(=O)N[C@H](C(=O)N[C@@H](CC(C)C)C(N)=O)[C@@H](C)CC [D-lys-MPI] (H-IDW[dK][dK]LLDAA[dK]QIL-NH2)	256 (≈ 423 µg/mL)	256 (≈ 423 µg/mL)	>256	>256	128 (≈ 212 µg/mL)	>256	256 (≈ 423 µg/mL)	>256	64 (≈ 106 µg/mL)	>256	128 (≈ 212 µg/mL)	256 (≈ 423 µg/mL)	>256	128 (≈ 212 µg/mL)	>256	>256	>256	>256	not or only partly degraded	>256	MBC/MFC [14]: >256 µM; MBC/MFC (sakazakii (ATCC 29544) [15]): >256 µM; MBC/MFC [16]: >256 µM; MBC/MFC [17]: >256 µM; MBC/MFC (E. coli (ATCC2592)): >256 µM; MBC/MFC [18]: >256 µM

— article PMC5128008, “Antimicrobial activity and stability of the D-amino acid substituted derivatives of antimicrobial peptide polybia-MPI” (AMB Express, 2016)
